Measured values as given in patent publication US20220213126A1, “SMALL MOLECULE AUTOPHAGY INDUCERS FOR THE TREATMENT OF CANCER AND NEURODEGENERATIVE DISEASES” (John Wayne Cancer Institute, priority 2019, published 2022).
“And” between values parts separate entries of the source, which are not always exact repeats. Equal entries are not always repeated. One block for each compound: values may come before it.

Tests used:
[1] = Pharmacokinetics of BC-4 and BC-5 in mouse plasma and brain; type: in vivo; conditions: Balb/c mice, single oral dose 5 mg/kg
Description: Pharmacokinetics of BC-4 and BC-5 were compared to BC-1. Pharmacokinetics were assessed in Balb/c mice administered a single oral dose of 5 mg/kg of the indicated compound (Tables 11 and 12).

[2] = Pharmacokinetics of BC-2 and BC-3 in mouse plasma and brain; type: in vivo, mice
Description: Pharmacokinetics were assessed in mice administered a single oral dose of 5 mg/kg of the indicated compound (Tables 9 and 10).

[3] = system: GBM8; assay: GBM cell viability, Alamar blue, 72 hours; type: cell-based; conditions: GBM8, patient-derived cell line
Description: (§1) The effect of VMY-BC-1 was tested on a panel of GBM cell lines. […] In this study 100 μM was the highest drug concentration used, with 3-fold dilution for a 10 dose response curve.

[4] = system: U87; assay: GBM cell viability, Alamar blue, 72 hours; type: cell-based; conditions: Homo sapiens, U-87 MG, U87, established glioma cell line
Description: as §1

[5] = system: GBM4; assay: GBM cell viability, Alamar blue, 72 hours; type: cell-based; conditions: GBM4, patient-derived cell line
Description: as §1

[6] = system: U251; assay: GBM cell viability, Alamar blue, 72 hours; type: cell-based; conditions: Homo sapiens, U-251, U251, established glioma cell line
Description: as §1

[7] = system: GL261; assay: GBM cell viability, Alamar blue, 72 hours; type: cell-based; conditions: Mus musculus, GL261, established glioma cell line
Description: as §1

[8] = Brain, single oral dose 5 mg/kg
[9] = Plasma, single oral dose 5 mg/kg
[10] = single oral dose 5 mg/kg, 0 min
[11] = single oral dose 5 mg/kg, 30 min
[12] = single oral dose 5 mg/kg, 60 min
[13] = single oral dose 5 mg/kg, 180 min
[14] = single oral dose 5 mg/kg, 360 min
[15] = single oral dose 5 mg/kg, 900 min
[16] = single oral dose 5 mg/kg, 1440 min

SMILES: CCC(=C(c1ccccc1)c1ccc(OC)cc1)c1cc(OC)cc(B(O)O)c1 [BC-5]
Concentrations in plasma vs brain [1]: higher concentrations in plasma than brain
Brain level, Mean (4) ± SE ([1]; 0 min): BQL
Plasma level, Mean (4) ± SE ([1]; 0 min): BQL
Brain level, Mean (4) ± SE ([1]; 30 min): 142 ± 32 ng/g
Plasma level, Mean (4) ± SE ([1]; 30 min): 1599 ± 40 ng,/ml
Brain level, Mean (4) ± SE ([1]; 60 min): 205 ± 39 ng/g
Plasma level, Mean (4) ± SE ([1]; 60 min): 1524 ± 106 ng,/ml
Brain level, Mean (4) ± SE ([1]; 180 min): 105 ± 26 ng/g
Plasma level, Mean (4) ± SE ([1]; 180 min): 742 ± 91 ng,/ml
Brain level, Mean (4) ± SE ([1]; 360 min): 28 ± 6 ng/g
Plasma level, Mean (4) ± SE ([1]; 360 min): 290 ± 35 ng,/ml
Brain level, Mean (4) ± SE ([1]; 900 min): BQL
Plasma level, Mean (4) ± SE ([1]; 900 min): 49 ± 10 ng,/ml
Brain level, Mean (4) ± SE ([1]; 1440 min): BQL
Plasma level, Mean (4) ± SE ([1]; 1440 min): 15 ± 9 ng,/ml
Tmax ([1]; Brain): 60 min
T½ ([1]; Brain): 103 min
terminal elimination rate constant (lambda z) ([1]; Brain): 0.00672 min⁻¹
AUC(0-t) ([1]; Plasma): 376000 ng·min/mL
AUC(inf) ([1]; Plasma): 381000 ng·min/mL
Cmax ([1]; Plasma): 1600 ng/mL
Tmax ([1]; Plasma): 30 min
T½ ([1]; Plasma): 251 min
terminal elimination rate constant (lambda z) ([1]; Plasma): 0.00276 min⁻¹

SMILES: Oc1ccc(C=Cc2cc(O)cc(O)c2)cc1 [Resveratrol, resveratrol, reference compound]
IC50 [3]: 26.6 µM
IC50 [4]: 40 µM
IC50 [5]: 40.6 µM
IC50 [6]: 12 µM
IC50 [7]: 10.6 µM
Drug level in plasma and brain, all time points ([2]; single oral dose 5 mg/kg): below quantification level
Brain level, Mean (4) ± SE [2, 10]: BQL
Plasma level, Mean (4) ± SE [2, 10]: BQL
Brain level, Mean (4) ± SE [2, 11]: BQL
Plasma level, Mean (4) ± SE [2, 11]: BQL
Brain level, Mean (4) ± SE [2, 12]: BQL
Plasma level, Mean (4) ± SE [2, 12]: BQL
Brain level, Mean (4) ± SE [2, 13]: BQL
Plasma level, Mean (4) ± SE [2, 13]: BQL
Brain level, Mean (4) ± SE [2, 14]: BQL
Plasma level, Mean (4) ± SE [2, 14]: BQL
Brain level, Mean (4) ± SE [2, 15]: BQL
Plasma level, Mean (4) ± SE [2, 15]: BQL
Brain level, Mean (4) ± SE [2, 16]: BQL
Plasma level, Mean (4) ± SE [2, 16]: BQL

The next lines start with results.

Brain level, Mean (4) ± SE ([1]; 0 min): BQL
Plasma level, Mean (4) ± SE ([1]; 0 min): BQL
Brain level, Mean (4) ± SE ([1]; 30 min): 164 ± 16 ng/g
Plasma level, Mean (4) ± SE ([1]; 30 min): 255 ± 20 ng,/ml
Brain level, Mean (4) ± SE ([1]; 60 min): 139 ± 14 ng/g
Plasma level, Mean (4) ± SE ([1]; 60 min): 163 ± 20 ng,/ml
Brain level, Mean (4) ± SE ([1]; 180 min): BQL
Plasma level, Mean (4) ± SE ([1]; 180 min): 36 ± 6 ng,/ml
Brain level, Mean (4) ± SE ([1]; 360 min): BQL
Plasma level, Mean (4) ± SE ([1]; 360 min): 22 ± 3 ng,/ml
Brain level, Mean (4) ± SE ([1]; 900 min): BQL
Plasma level, Mean (4) ± SE ([1]; 900 min): BQL
Brain level, Mean (4) ± SE ([1]; 1440 min): BQL
Plasma level, Mean (4) ± SE ([1]; 1440 min): BQL
Tmax ([1]; Brain): 30 min
T½ ([1]; Brain): 127 min
terminal elimination rate constant (lambda z) ([1]; Brain): 0.00546 min⁻¹
AUC(0-t) ([1]; Plasma): 25300 ng·min/mL
AUC(inf) ([1]; Plasma): 28300 ng·min/mL
Cmax ([1]; Plasma): 255 ng/mL
Tmax ([1]; Plasma): 30 min
T½ ([1]; Plasma): 94.5 min
terminal elimination rate constant (lambda z) ([1]; Plasma): 0.00734 min⁻¹
SMILES: CC=C(c1ccc(OC)cc1)C(CC)c1cc(OC)cc(B(O)O)c1 (racemic) [BC-4]
Concentrations in plasma vs brain [1]: higher concentrations in plasma than brain

AUC(0-inf) ([2]; mouse, in vivo, po, 5 mg/kg): 2000 ng·h/mL
AUC(inf) ([2]; mouse, in vivo, po, 5 mg/kg): 504000 ng·min/mL
Cmax ([2]; mouse, in vivo, po, 5 mg/kg): 841 ng/mL and 4140 ng/g
Tmax ([2]; mouse, in vivo, po, 5 mg/kg): 60 min
T½ ([2]; mouse, in vivo, po, 5 mg/kg): 54.8 min
concentration at 30 min ([2]; mouse, in vivo, po, 5 mg/kg): 841 ng/mL and 3420 ng/g
concentration at 60 min ([2]; mouse, in vivo, po, 5 mg/kg): 732 ng/mL and 4140 ng/g
concentration at 180 min ([2]; mouse, in vivo, po, 5 mg/kg): 281 ng/mL and 983 ng/g
concentration at 360 min ([2]; mouse, in vivo, po, 5 mg/kg): 43 ng/mL and 94 ng/g
Tmax ([2]; mouse, in vivo, po, 5 mg/kg, Tmax): 30 min
half-life ([2]; mouse, in vivo, po, 5 mg/kg, T½): 72.8 min
SMILES: CCOc1ccc(/C=C/c2cc(OC)cc(B(O)O)c2)cc1 [BC-2, (E)-(3-(4-ethoxystyryl)-5-methoxyphenyl) Boronic Acid]
Concentration in brain vs plasma ([2]; mouse, in vivo, po, 5 mg/kg): higher concentration in brain than in plasma

Kd (Lambda Z) [2, 8]: 0.000342 s⁻¹
Tmax [2, 8]: 30 min
T½ [2, 8]: 33.8 min
AUC(0-t) [2, 9]: 25500 ng·min/mL
AUC(inf) [2, 9]: 26300 ng·min/mL
Cmax [2, 9]: 439 ng/mL
Kd (Lambda Z) [2, 9]: 0.000358 s⁻¹
Tmax [2, 9]: 30 min
T½ [2, 9]: 32.3 min
Brain level, Mean (4) ± SE [2, 10]: BQL
Plasma level, Mean (4) ± SE [2, 10]: BQL
Brain level, Mean (4) ± SE [2, 11]: 1951 ± 323 ng/g
Plasma level, Mean (4) ± SE [2, 11]: 439 ± 67 ng/mL
Brain level, Mean (4) ± SE [2, 12]: 1233 ± 219 ng/g
Plasma level, Mean (4) ± SE [2, 12]: 217 ± 28 ng/mL
Brain level, Mean (4) ± SE [2, 13]: 95 ± 26 ng/g
Plasma level, Mean (4) ± SE [2, 13]: 17 ± 10 ng/mL
Brain level, Mean (4) ± SE [2, 14]: BQL
Plasma level, Mean (4) ± SE [2, 14]: BQL
Brain level, Mean (4) ± SE [2, 15]: BQL
Plasma level, Mean (4) ± SE [2, 15]: BQL
Brain level, Mean (4) ± SE [2, 16]: BQL
Plasma level, Mean (4) ± SE [2, 16]: BQL
SMILES: COc1cc(/C=C/c2ccc(F)cc2)cc(B(O)O)c1 [BC-3]
Concentration in brain vs plasma ([2]; single oral dose 5 mg/kg): higher concentration in brain than in plasma
